The record followed here is PubChem BioAssay AID1259407 (Chemical Carcinogenesis Research Information System (CCRIS), 2018).

The source made the active and inactive calls. The rule behind the calls is not given here.

The test system of the data set is CCRIS mutagenicity, Ames/micronucleus/aberration tests. In words: CCRIS mutagenicity studies.
The mark [1] stands for this setting: Test System: AMES SALMONELLA TYPHIMURIUM, Strain/Indicator: TA100, Metabolic Activation: NONE, Method: STANDARD PLATE.

Consider `COc1cc2c(cc1OC)CN(N=O)CC2`, for which the mutagenic call runs as follows: (Test System: AMES SALMONELLA TYPHIMURIUM, Strain/Indicator: TA98, Metabolic Activation: RAT, LIVER, S-9, AROCLOR 1254, Method: PREINCUBATION) “active; positive”; (Test System: AMES SALMONELLA TYPHIMURIUM, Strain/Indicator: TA100, Metabolic Activation: RAT, LIVER, S-9, AROCLOR 1254, Method: PREINCUBATION) “active; positive”; (Test System: AMES SALMONELLA TYPHIMURIUM, Strain/Indicator: TA1535, Metabolic Activation: RAT, LIVER, S-9, AROCLOR 1254, Method: PREINCUBATION) “active; positive”; (Test System: AMES SALMONELLA TYPHIMURIUM, Strain/Indicator: TA1537, Metabolic Activation: RAT, LIVER, S-9, AROCLOR 1254, Method: PREINCUBATION) “active; positive”; (Test System: AMES SALMONELLA TYPHIMURIUM, Strain/Indicator: TA1538, Metabolic Activation: RAT, LIVER, S-9, AROCLOR 1254, Method: PREINCUBATION) “active; positive”.

Take `O[C@@H]1C2=c3c(cc4cccc5ccc(c3c54)[C@H]1O)-c1ccccc12`: the mutagenic call (Test System: AMES SALMONELLA TYPHIMURIUM, Strain/Indicator: TA100, Metabolic Activation: RAT, LIVER, S-9, AROCLOR 1254, Method: STANDARD PLATE) is “inactive; negative”.

Regarding `C=CCOC(=O)CCCCC`, the mutagenic call by setting is: (Test System: AMES SALMONELLA TYPHIMURIUM, Strain/Indicator: TA97, Metabolic Activation: NONE, Method: PREINCUBATION) “inactive; negative”; (Test System: AMES SALMONELLA TYPHIMURIUM, Strain/Indicator: TA97, Metabolic Activation: RAT, LIVER, S-9, AROCLOR 1254, Method: PREINCUBATION) “inactive; negative”; (Test System: AMES SALMONELLA TYPHIMURIUM, Strain/Indicator: TA102, Metabolic Activation: NONE, Method: PREINCUBATION) “inactive; negative”; (Test System: AMES SALMONELLA TYPHIMURIUM, Strain/Indicator: TA102, Metabolic Activation: RAT, LIVER, S-9, AROCLOR 1254, Method: PREINCUBATION) “inactive; negative”.

With `CC(C)CCC[C@@H](C)[C@H]1CC[C@H]2[C@@H]3C[C@@H]4N(N5C(=O)c6ccccc6C5=O)[C@@]45C[C@@H](Cl)CC[C@]5(C)[C@H]3CC[C@]12C` (stereo not given in full), the mutagenic call was “inactive; negative” (Test System: AMES SALMONELLA TYPHIMURIUM, Strain/Indicator: TA97A, Metabolic Activation: NONE, Method: STANDARD PLATE); “inactive; negative” under setting [1]; “inactive; negative” (Test System: AMES SALMONELLA TYPHIMURIUM, Strain/Indicator: TA102, Metabolic Activation: NONE, Method: STANDARD PLATE); “inactive; negative” (Test System: AMES SALMONELLA TYPHIMURIUM, Strain/Indicator: TA104, Metabolic Activation: NONE, Method: STANDARD PLATE).

As for `CCCCCCOCCOCCO`, the mutagenic call by setting is: (Test System: AMES SALMONELLA TYPHIMURIUM, Strain/Indicator: TA98, Metabolic Activation: NONE, Method: STANDARD PLATE) “inactive; negative”; (Test System: AMES SALMONELLA TYPHIMURIUM, Strain/Indicator: TA98, Metabolic Activation: RAT LIVER S-9, AROCLOR 1254, Method: STANDARD PLATE) “inactive; negative”; under setting [1], “inactive; negative”; (Test System: AMES SALMONELLA TYPHIMURIUM, Strain/Indicator: TA100, Metabolic Activation: RAT LIVER S-9, AROCLOR 1254, Method: STANDARD PLATE) “inactive; negative”; (Test System: AMES SALMONELLA TYPHIMURIUM, Strain/Indicator: TA1535, Metabolic Activation: NONE, Method: STANDARD PLATE) “inactive; negative”; (Test System: AMES SALMONELLA TYPHIMURIUM, Strain/Indicator: TA1535, Metabolic Activation: RAT LIVER S-9, AROCLOR 1254, Method: STANDARD PLATE) “inactive; negative”. The mutagenic call (Test System: AMES SALMONELLA TYPHIMURIUM, Strain/Indicator: TA1537, Metabolic Activation: NONE, Method: STANDARD PLATE) is “inactive; negative”; the mutagenic call (Test System: AMES SALMONELLA TYPHIMURIUM, Strain/Indicator: TA1537, Metabolic Activation: RAT LIVER S-9, AROCLOR 1254, Method: STANDARD PLATE) is “inactive; negative”; the mutagenic call (Test System: AMES SALMONELLA TYPHIMURIUM, Strain/Indicator: TA1538, Metabolic Activation: NONE, Method: STANDARD PLATE) is “inactive; negative”; the mutagenic call (Test System: AMES SALMONELLA TYPHIMURIUM, Strain/Indicator: TA1538, Metabolic Activation: RAT LIVER S-9, AROCLOR 1254, Method: STANDARD PLATE) is “inactive; negative”; the mutagenic call (Test System: CHINESE HAMSTER OVARY CELLS, Strain/Indicator: CHO-K1-BH4 CELLS (HPRT)/6-THIOGUANINE, Metabolic Activation: RAT LIVER S-9, AROCLOR 1254, Method: PREINCUBATION) was “active; positive”.
